Data published in patent publication US12391737B2, “Soluble NPY2 receptor agonists” (Boehringer Ingelheim International GmbH, priority 2020, dated 2025).

How the values were obtained:
[1] = molecular target: T1, human NPY1 receptor (hY1R) (Homo sapiens, UniProt P25929); test: HTRF cAMP Gi assay, hY1R; type: cell-based; settings: CHO-K1 cells
T1 construct: expressed in transfected cells; host or cells: CHO-K1
T1 sequence (P25929 1-384): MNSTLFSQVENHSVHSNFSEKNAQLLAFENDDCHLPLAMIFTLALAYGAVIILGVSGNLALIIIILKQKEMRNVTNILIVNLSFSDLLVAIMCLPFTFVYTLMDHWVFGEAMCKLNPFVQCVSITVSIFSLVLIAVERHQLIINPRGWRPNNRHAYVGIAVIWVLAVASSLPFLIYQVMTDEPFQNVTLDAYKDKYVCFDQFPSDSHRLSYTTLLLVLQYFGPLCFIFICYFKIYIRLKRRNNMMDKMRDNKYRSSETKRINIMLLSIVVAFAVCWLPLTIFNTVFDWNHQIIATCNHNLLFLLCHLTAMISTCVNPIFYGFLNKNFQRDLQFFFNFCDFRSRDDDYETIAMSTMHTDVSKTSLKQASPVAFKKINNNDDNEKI

[2] = molecular target: T2, Human Neuropeptide Y2 Receptor (Homo sapiens, UniProt P49146); test: Radioligand binding competition assay (RLB); settings: Table 3, 125I-PYY(1-36) competition; read-out: Ki
T2 construct: purchased CHEMICON HTS066M
T2 sequence (P49146 1-381): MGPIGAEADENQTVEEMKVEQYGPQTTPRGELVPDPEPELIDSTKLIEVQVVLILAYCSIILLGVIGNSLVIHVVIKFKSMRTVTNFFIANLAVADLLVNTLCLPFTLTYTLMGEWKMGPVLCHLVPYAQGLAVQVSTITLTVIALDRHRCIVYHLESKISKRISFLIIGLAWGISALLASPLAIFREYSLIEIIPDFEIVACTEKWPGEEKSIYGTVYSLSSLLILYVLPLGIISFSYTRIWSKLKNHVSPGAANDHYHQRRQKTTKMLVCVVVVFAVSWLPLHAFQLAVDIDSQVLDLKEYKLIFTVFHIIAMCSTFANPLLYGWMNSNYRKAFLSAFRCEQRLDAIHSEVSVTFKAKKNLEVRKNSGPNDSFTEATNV
Procedure, shortened: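 Peptides were serially diluted from 1 mM DMSO stocks and competed for radioligand binding to receptor membranes (0.5 μg/well) over 2 h at room temperature, pH 7.4 HEPES buffer. Bound radioactivity on filters was counted by scintillation, and IC50 was derived by nonlinear regression.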

[3] = molecular target: T3, human NPY4 receptor (hY4R) (Homo sapiens, UniProt P50391); test: HTRF cAMP Gi assay, hY4R; type: cell-based; settings: CHO-K1 cells
T3 construct: expressed in transfected cells; host or cells: CHO-K1

[4] = molecular target: T4, human NPY5 receptor (hY5R) (Homo sapiens, UniProt Q15761); test: HTRF cAMP Gi assay, hY5R
T4 sequence (Q15761 1-445): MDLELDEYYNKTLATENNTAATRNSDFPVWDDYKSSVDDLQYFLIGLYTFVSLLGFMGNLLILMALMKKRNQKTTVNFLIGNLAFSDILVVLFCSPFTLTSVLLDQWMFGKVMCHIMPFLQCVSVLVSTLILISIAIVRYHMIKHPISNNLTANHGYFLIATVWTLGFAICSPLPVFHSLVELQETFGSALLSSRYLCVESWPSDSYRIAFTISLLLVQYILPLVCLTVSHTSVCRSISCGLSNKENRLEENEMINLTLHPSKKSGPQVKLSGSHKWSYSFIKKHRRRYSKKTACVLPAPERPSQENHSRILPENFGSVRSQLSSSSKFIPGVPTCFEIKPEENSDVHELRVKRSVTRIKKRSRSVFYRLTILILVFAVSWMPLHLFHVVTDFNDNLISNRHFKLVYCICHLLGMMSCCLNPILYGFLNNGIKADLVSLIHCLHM

Solubility determination = settings: for Sol6: pH 6; for Sol7: pH 7
Procedure, shortened: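 Shake-flask style: 10 mg/ml peptide (TFA salt), 0.1 M sodium diphosphate pH 6.4/7.0, 600 rpm, 2 h, RT; filter; dilute 1 mg/ml in 50% MeCN; RP-UPLC, 0–100% B over 2 min, 50 °C. Solubility = sample/control area ratio. Final pH recorded.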

T3 sequence (P50391 whole entry): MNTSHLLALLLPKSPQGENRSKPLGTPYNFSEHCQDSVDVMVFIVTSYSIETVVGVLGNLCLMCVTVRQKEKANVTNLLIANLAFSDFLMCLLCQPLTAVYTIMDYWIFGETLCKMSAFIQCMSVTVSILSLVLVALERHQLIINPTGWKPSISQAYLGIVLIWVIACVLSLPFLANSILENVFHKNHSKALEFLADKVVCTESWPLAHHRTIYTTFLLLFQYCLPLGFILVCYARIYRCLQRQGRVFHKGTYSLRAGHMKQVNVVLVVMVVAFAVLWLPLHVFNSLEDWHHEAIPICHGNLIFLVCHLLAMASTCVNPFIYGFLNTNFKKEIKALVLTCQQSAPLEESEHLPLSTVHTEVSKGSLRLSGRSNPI

| EC50 [1] | Ki [2] | EC50 [3] | EC50 [4] | Sol6 (Solubility determination) | Sol7 (Solubility determination) | Compound |
| --- | --- | --- | --- | --- | --- | --- |
| > 5 µM | 0.00107 µM | > 5 µM | > 5 µM | 9.6 mg/mL | 10.0 mg/mL | CC(C)CC(=O)N[C@@H](C)C(=O)N1CCC[C@H]1C(=O)N[C@@H](CCC(=O)O)C(=O)N[C@@H](CCCCNC(=O)CCCCCNC(=O)CC[C@H](NC(=O)CCCCCCCCCCCCCCCCC(=O)O)C(=O)O)C(=O)N1CCC[C@H]1C(=O)N[C@@H](CCC(=O)O)C(=O)N[C@@H](C)C(=O)N[C@@H](CC(=O)O)C(=O)N[C@@H](C)C(=O)N[C@H](C(=O)N1CCC[C@H]1C(=O)N[C@@H](CCC(=O)O)C(=O)N[C@@H](CCC(=O)O)C(=O)N[C@@H](CC(C)C)C(=O)N[C@@H](CCC(N)=O)C(=O)N[C@@H](CCCNC(=N)N)C(=O)N[C@@H](Cc1ccc(O)cc1)C(=O)N[C@@H](Cc1ccc(O)cc1)C(=O)N[C@H](C(=O)N[C@@H](C)C(=O)N[C@@H](CC(C)C)C(=O)N[C@@H](CCCNC(=N)N)C(=O)N[C@@H](Cc1c[nH]cn1)C(=O)N[C@@H](Cc1ccc(O)cc1)C(=O)N[C@@H](Cc1ccc(O)cc1)C(=O)N[C@@H](CC(N)=O)C(=O)N[C@@H](Cc1c[nH]c2ccccc12)C(=O)N[C@@H](CC(C)C)C(=O)N[C@H](C(=O)N[C@@H](CCCNC(=N)N)C(=O)N[C@@H](CCC(N)=O)C(=O)N[C@@H](CCCNC(=N)N)C(=O)N[C@@H](Cc1ccc(O)cc1)C(N)=O)[C@@H](C)O)C(C)C)[C@@H](C)O [Compound 136, N{alpha-4}-(3-methylbutanoyl)-N{epsilon-7}-(6-[(4S)-4-carboxy-4-(17-carboxyheptadecanamido)butanamido]hexanoyl)-[4A,7K,9E,10A,13T,18Q,22V,23A,28Y,30W,31L]-hPYY(4-36)] |
| > 5 µM | 0.00218 µM | > 5 µM | > 5 µM | 9.7 mg/mL | 10.0 mg/mL | CC[C@H](C)[C@H](NC(=O)[C@H](CCC(=O)O)NC(=O)[C@H](CCC(=O)O)NC(=O)[C@@H]1CCCN1C(=O)[C@H](CO)NC(=O)[C@H](C)NC(=O)[C@H](C)NC(=O)[C@H](CCC(=O)O)NC(=O)[C@H](CCC(=O)O)NC(=O)[C@@H]1CCCN1C(=O)[C@H](CCCCNC(=O)CCCCCNC(=O)CC[C@H](NC(=O)CCCCCCCCCCCCCCCCC(=O)O)C(=O)O)NC(=O)[C@H](CCC(=O)O)NC(=O)[C@@H]1CCCN1C(=O)[C@H](C)NC(=O)CC(C)C)C(=O)N[C@@H](CCC(N)=O)C(=O)N[C@@H](CCCNC(=N)N)C(=O)N[C@@H](Cc1ccc(O)cc1)C(=O)N[C@@H](Cc1ccc(O)cc1)C(=O)N[C@H](C(=O)N[C@@H](CO)C(=O)N[C@@H](CC(C)C)C(=O)N[C@@H](CCCNC(=N)N)C(=O)N[C@@H](Cc1c[nH]cn1)C(=O)N[C@@H](Cc1ccc(O)cc1)C(=O)N[C@@H](Cc1ccc(O)cc1)C(=O)N[C@@H](CC(N)=O)C(=O)N[C@@H](Cc1c[nH]c2ccccc12)C(=O)N[C@@H](CC(C)C)C(=O)N[C@H](C(=O)N[C@@H](CCCNC(=N)N)C(=O)N[C@@H](CCC(N)=O)C(=O)N[C@@H](CCCNC(=N)N)C(=O)N[C@@H](Cc1ccc(O)cc1)C(N)=O)[C@@H](C)O)C(C)C [Compound 150, N{alpha-4}-(3-methylbutanoyl)-N{epsilon-7}-(6-[(4S)-4-carboxy-4-(17-carboxyheptadecanamido)butanamido]hexanoyl)-[4A,7K,9E,11A,17I,18Q,22V,28Y,30W,31L]-hPYY(4-36)] |
| > 5 µM | 0.00064 µM | > 5 µM | > 5 µM | 9.1 mg/mL | 9.1 mg/mL | CC[C@H](C)[C@H](NC(=O)[C@H](CCC(=O)O)NC(=O)[C@H](CCC(=O)O)NC(=O)[C@@H]1CCCN1C(=O)[C@@H](NC(=O)[C@H](C)NC(=O)[C@H](CC(=O)O)NC(=O)[C@H](C)NC(=O)[C@H](CCC(=O)O)NC(=O)[C@@H]1CCCN1C(=O)[C@H](CCCCNC(=O)CCCCCNC(=O)CC[C@H](NC(=O)CCCCCCCCCCCCCCCCC(=O)O)C(=O)O)NC(=O)[C@H](CCC(=O)O)NC(=O)[C@@H]1CCCN1C(=O)[C@H](C)NC(=O)CC(C)C)[C@@H](C)O)C(=O)N[C@@H](CCC(N)=O)C(=O)N[C@@H](CCCNC(=N)N)C(=O)N[C@@H](Cc1ccc(O)cc1)C(=O)N[C@@H](Cc1ccc(O)cc1)C(=O)N[C@H](C(=O)N[C@@H](C)C(=O)N[C@@H](CC(C)C)C(=O)N[C@@H](CCCNC(=N)N)C(=O)N[C@@H](Cc1c[nH]cn1)C(=O)N[C@@H](Cc1ccc(O)cc1)C(=O)N[C@@H](Cc1ccc(O)cc1)C(=O)N[C@@H](CC(N)=O)C(=O)N[C@@H](Cc1c[nH]c2ccccc12)C(=O)N[C@@H](CC(C)C)C(=O)N[C@H](C(=O)N[C@@H](CCCNC(=N)N)C(=O)N[C@@H](CCC(N)=O)C(=O)N[C@@H](CCCNC(=N)N)C(=O)N[C@@H](Cc1ccc(O)cc1)C(N)=O)[C@@H](C)O)C(C)C [Compound 184, N{alpha-4}-(3-methylbutanoyl)-N{epsilon-7}-(6-[(4S)-4-carboxy-4-(17-carboxyheptadecanamido)butanamido]hexanoyl)-[4A,7K,9E,10A,13T,17I,18Q,22V,23A,28Y,30W,31L]-hPYY(4-36)] |
| > 5 µM | 0.00342 µM | > 5 µM | > 5 µM | 8.9 mg/mL | 9.1 mg/mL | CC[C@H](C)[C@H](NC(=O)[C@H](CCC(=O)O)NC(=O)[C@H](CCC(=O)O)NC(=O)[C@@H]1CCCN1C(=O)[C@H](CO)NC(=O)[C@H](C)NC(=O)[C@H](CCC(=O)O)NC(=O)[C@H](CCC(=O)O)NC(=O)[C@H](CCC(=O)O)NC(=O)[C@@H]1CCCN1C(=O)[C@H](CCCCNC(=O)CCCCCNC(=O)CC[C@H](NC(=O)CCCCCCCCCCCCCCCCC(=O)O)C(=O)O)NC(=O)[C@H](CCC(=O)O)NC(=O)[C@@H]1CCCN1C(=O)[C@H](C)NC(=O)CC(C)C)C(=O)N[C@@H](CCC(N)=O)C(=O)N[C@@H](CCCNC(=N)N)C(=O)N[C@@H](Cc1ccc(O)cc1)C(=O)N[C@@H](Cc1ccc(O)cc1)C(=O)N[C@H](C(=O)N[C@@H](CO)C(=O)N[C@@H](CC(C)C)C(=O)N[C@@H](CCCNC(=N)N)C(=O)N[C@@H](Cc1c[nH]cn1)C(=O)N[C@@H](Cc1ccc(O)cc1)C(=O)N[C@@H](Cc1ccc(O)cc1)C(=O)N[C@@H](CC(N)=O)C(=O)N[C@@H](Cc1c[nH]c2ccccc12)C(=O)N[C@@H](CC(C)C)C(=O)N[C@H](C(=O)N[C@@H](CCCNC(=N)N)C(=O)N[C@@H](CCC(N)=O)C(=O)N[C@@H](CCCNC(=N)N)C(=O)N[C@@H](Cc1ccc(O)cc1)C(N)=O)[C@@H](C)O)C(C)C [Compound 193, N{alpha-4}-(3-methylbutanoyl)-N{epsilon-7}-(6-[(4S)-4-carboxy-4-(17-carboxyheptadecanamido)butanamido]hexanoyl)-[4A,7K,9E,11E,17I,18Q,22V,28Y,30W,31L]-hPYY(4-36)] |
